In US8895587B2, “Insecticidal compounds based on arylthioacetamide derivatives” (Syngenta Participations AG, priority 2011, dated 2014):

Assays:
Assay type in all cases: in vivo
Spodoptera littoralis = Spodoptera littoralis (Egyptian cotton leafworm) leaf disc test; settings: foliar, 72 h, application rate 200 ppm, cotton leaf discs, L1 larvae, mortality, feeding behavior, growth regulation 3 DAT
Description: Spodoptera littoralis (Egyptian Cotton Leafworm): Cotton leaf discs were placed on agar in a 24-well microtiter plate and sprayed with test solutions at an application rate of 200 ppm. After drying, the leaf discs were infested with 5 L1 larvae. The samples were checked for mortality, feeding behavior, and growth regulation 3 days after treatment (DAT).

Diabrotica balteata = Diabrotica balteata (corn root worm) larval test on artificial diet; settings: 120 h, application rate 200 ppm (concentration in well 18 ppm), L2 larvae on artificial diet, 5 days
Procedure: (§1) Diabrotica balteata (Corn Root Worm): A 24-well microtiter plate (MTP) with artificial diet was treated with test solutions at an application rate of 200 ppm (concentration in well 18 ppm) by pipetting. After drying, the MTP's were infested with L2 larvae (6-10 per well). After an incubation period of 5 days, samples were checked for larval mortality and growth regulation.

Thrips tabaci = Thrips tabaci (onion thrips) leaf disc test; settings: foliar, 168 h, application rate 200 ppm, sunflower leaf discs, 7 days
Procedure: Sunflower leaf discs were placed on agar in a 24-well microtiter plate and sprayed with test solutions at an application rate of 200 ppm. After drying, the leaf discs were infested with a thrips population of mixed ages. After an incubation period of 7 days, samples were checked for mortality.

Heliothis virescens = Heliothis virescens (tobacco budworm) egg/larval test on artificial diet; settings: 96 h, application rate 200 ppm (concentration in well 18 ppm), eggs on artificial diet, 4 days
Procedure: Eggs (0-24 h old) were placed in 24-well microtiter plate on artificial diet and treated with test solutions at an application rate of 200 ppm (concentration in well 18 ppm) by pipetting. After an incubation period of 4 days, samples were checked for egg mortality, larval mortality, and growth regulation.

Plutella xylostella = Plutella xylostella (diamond back moth) larval test on artificial diet; settings: 144 h, application rate 200 ppm (concentration in well 18 ppm), L2 larvae on artificial diet, 6 days
Procedure: as §1, with “24-well” for “Diabrotica balteata (Corn Root Worm): A 24-well”, “(7-12” for “(6-10”, “6” for “5”

Myzus persicae = Myzus persicae (green peach aphid), systemic test; settings: 144 h, application rate 12.5 ppm, roots of pea seedlings in test solution, 6 days
Description: Myzus persicae (Green peach aphid), systemic test: Roots of pea seedlings, infested with an aphid population of mixed ages, are placed directly in the test solutions at an application rate of 12.5 ppm. 6 days after introduction, samples are checked for mortality and special effects on the plant. The following compounds gave at least 80% control of Myzus persicae: […]

Tetranychus urticae = Tetranychus urticae (two-spotted spider mite) leaf disc test; settings: foliar, 192 h, application rate 200 ppm, bean leaf discs, 8 days
Description: Bean leaf discs on agar in 24-well microtiter plates were sprayed with test solutions at an application rate of 200 ppm. After drying, the leaf discs are infested with mite populations of mixed ages. 8 days later, discs are checked for egg mortality, larval mortality, and adult mortality.

O=C(CS(=O)(=O)c1ccc(C2=NCC(c3cc(Cl)cc(Cl)c3)(C(F)(F)F)C2)cc1Cl)NCC(F)(F)F (centres unmarked) [Compound B3, 2-{2-chloro-4-[4-(3,5-Dichloro-phenyl)-4-trifluoromethyl-4,5-dihydro-3H-pyrrol-2-yl]-benzenesulfonyl}-N-(2,2,2-trifluoro-ethyl)-acetamide]
≥ 80%: pest or weed control at 200 ppm (Spodoptera littoralis) | pest or weed control at 200 ppm (Diabrotica balteata) | pest or weed control at 200 ppm (Thrips tabaci) | pest or weed control at 200 ppm (Heliothis virescens) | pest or weed control at 200 ppm (Plutella xylostella) | pest or weed control at 12.5 ppm (Myzus persicae) | pest or weed control at 200 ppm (Tetranychus urticae)

O=C(CSc1ccc(C2=NOC(c3cc(Cl)cc(Cl)c3)(C(F)(F)F)C2)cc1Br)NCC(F)(F)F (centres unmarked) [Compound A29, 2-{2-bromo-4-[5-(3,5-dichloro-phenyl)-5-trifluoromethyl-4,5-dihydro-isoxazol-3-yl]-phenylsulfanyl}-N-(2,2,2-trifluoro-ethyl)-acetamide]
≥ 80%: pest or weed control at 200 ppm (Spodoptera littoralis) | pest or weed control at 200 ppm (Diabrotica balteata) | pest or weed control at 200 ppm (Thrips tabaci) | pest or weed control at 200 ppm (Heliothis virescens) | pest or weed control at 200 ppm (Plutella xylostella) | pest or weed control at 12.5 ppm (Myzus persicae) | pest or weed control at 200 ppm (Tetranychus urticae)

N#CC1(NC(=O)CS(=O)(=O)c2ccc(C3=NOC(c4cc(Cl)cc(Cl)c4)(C(F)(F)F)C3)cc2Cl)CC1 (centres unmarked) [Compound A61, 2-[2-chloro-4-[5-(3,5-dichlorophenyl)-5-(trifluoromethyl)-4H-isoxazol-3-yl]phenyl]sulfonyl-N-(1-cyanocyclopropyl)acetamide]
≥ 80%: pest or weed control at 200 ppm (Spodoptera littoralis) | pest or weed control at 200 ppm (Diabrotica balteata) | pest or weed control at 200 ppm (Thrips tabaci) | pest or weed control at 200 ppm (Heliothis virescens) | pest or weed control at 200 ppm (Plutella xylostella) | pest or weed control at 200 ppm (Tetranychus urticae)

O=C(C[S+]([O-])c1ccc(C2=NO[C@@](c3cc(Cl)cc(Cl)c3)(C(F)(F)F)C2)cc1F)NCC(F)(F)F (stereo partly drawn) [Compound C64, 2-[4-[(5S)-5-(3,5-dichlorophenyl)-5-(trifluoromethyl)-4H-isoxazol-3-yl]-2-fluoro-phenyl]sulfinyl-N-(2,2,2-trifluoroethyl)acetamide]
≥ 80%: pest or weed control at 200 ppm (Spodoptera littoralis) | pest or weed control at 200 ppm (Diabrotica balteata) | pest or weed control at 200 ppm (Thrips tabaci) | pest or weed control at 200 ppm (Heliothis virescens) | pest or weed control at 200 ppm (Plutella xylostella) | pest or weed control at 12.5 ppm (Myzus persicae) | pest or weed control at 200 ppm (Tetranychus urticae)

O=C(CSc1ccc(C2=NO[C@@](c3cc(Cl)cc(Cl)c3)(C(F)(F)F)C2)c2ccccc12)NCC(F)(F)F [Compound G2, 2-[[4-[5-(S)-(3,5-dichlorophenyl)-5-(trifluoromethyl)-4H-isoxazol-3-yl]-1-naphthyl]sulfanyl]-N-(2,2,2-trifluoroethyl)acetamide]
≥ 80%: pest or weed control at 200 ppm (Spodoptera littoralis) | pest or weed control at 200 ppm (Diabrotica balteata) | pest or weed control at 200 ppm (Thrips tabaci) | pest or weed control at 200 ppm (Heliothis virescens) | pest or weed control at 200 ppm (Plutella xylostella) | pest or weed control at 12.5 ppm (Myzus persicae) | pest or weed control at 200 ppm (Tetranychus urticae)

N#CC1(NC(=O)CSc2ccc(C3=NOC(c4cc(Cl)cc(Cl)c4)(C(F)(F)F)C3)cc2Cl)CC1 (centres unmarked) [Compound A60, 2-[2-chloro-4-[5-(3,5-dichlorophenyl)-5-(trifluoromethyl)-4H-isoxazol-3-yl]phenyl]sulfanyl-N-(1-cyanocyclopropyl)acetamide]
≥ 80%: pest or weed control at 200 ppm (Spodoptera littoralis) | pest or weed control at 200 ppm (Diabrotica balteata) | pest or weed control at 200 ppm (Thrips tabaci) | pest or weed control at 200 ppm (Heliothis virescens) | pest or weed control at 200 ppm (Plutella xylostella) | pest or weed control at 12.5 ppm (Myzus persicae) | pest or weed control at 200 ppm (Tetranychus urticae)

O=C(CS(=O)(=O)c1ccc(C2=NOC(c3cc(Cl)cc(Cl)c3)(C(F)(F)F)C2)cc1Br)NCC(F)(F)F (centres unmarked) [Compound A53, 2-{2-Bromo-4-[5-(3,5-dichloro-phenyl)-5-trifluoromethyl-4,5-dihydro-isoxazol-3-yl]-benzenesulfonyl}-N-(2,2,2-trifluoro-ethyl)-acetamide]
≥ 80%: pest or weed control at 200 ppm (Spodoptera littoralis) | pest or weed control at 200 ppm (Diabrotica balteata) | pest or weed control at 200 ppm (Thrips tabaci) | pest or weed control at 200 ppm (Heliothis virescens) | pest or weed control at 200 ppm (Plutella xylostella) | pest or weed control at 12.5 ppm (Myzus persicae) | pest or weed control at 200 ppm (Tetranychus urticae)

O=C(C[S+]([O-])c1ccc(C2=NO[C@@](c3cc(Cl)c(Cl)c(Cl)c3)(C(F)(F)F)C2)cc1Cl)NC1CC1 (stereo partly drawn) [Compound D5, 2-[2-chloro-4-[(5S)-5-(3,4,5-trichlorophenyl)-5-(trifluoromethyl)-4H-isoxazol-3-yl]phenyl]sulfinyl-N-cyclopropyl-acetamide]
≥ 80%: pest or weed control at 12.5 ppm (Myzus persicae)

O=C(CSc1ccc(C2=NO[C@@](c3cc(Cl)c(Cl)c(Cl)c3)(C(F)(F)F)C2)cc1Cl)NCC(F)(F)F [Compound D1, 2-[2-chloro-4-[(5S)-5-(3,4,5-trichlorophenyl)-5-(trifluoromethyl)-4H-isoxazol-3-yl]phenyl]sulfanyl-N-(2,2,2-trifluoroethyl)acetamide]
≥ 80%: pest or weed control at 200 ppm (Spodoptera littoralis) | pest or weed control at 200 ppm (Diabrotica balteata) | pest or weed control at 200 ppm (Thrips tabaci) | pest or weed control at 200 ppm (Heliothis virescens) | pest or weed control at 200 ppm (Plutella xylostella) | pest or weed control at 12.5 ppm (Myzus persicae) | pest or weed control at 200 ppm (Tetranychus urticae)

O=C(C[S+]([O-])c1ccc(C2=NO[C@@](c3cc(Cl)c(Cl)c(Cl)c3)(C(F)(F)F)C2)cc1Cl)NCC(F)(F)F (stereo partly drawn) [Compound D2, 2-[2-chloro-4-[(5S)-5-(3,4,5-trichlorophenyl)-5-(trifluoromethyl)-4H-isoxazol-3-yl]phenyl]sulfinyl-N-(2,2,2-trifluoroethyl)acetamide]
≥ 80%: pest or weed control at 200 ppm (Spodoptera littoralis) | pest or weed control at 200 ppm (Diabrotica balteata) | pest or weed control at 200 ppm (Thrips tabaci) | pest or weed control at 200 ppm (Heliothis virescens) | pest or weed control at 200 ppm (Plutella xylostella) | pest or weed control at 12.5 ppm (Myzus persicae) | pest or weed control at 200 ppm (Tetranychus urticae)

O=C(CS(=O)(=O)c1ccc(C2=NO[C@@](c3cc(Cl)c(Cl)c(Cl)c3)(C(F)(F)F)C2)cc1Cl)NC1CC1 [Compound D6, 2-[2-chloro-4-[(5S)-5-(3,4,5-trichlorophenyl)-5-(trifluoromethyl)-4H-isoxazol-3-yl]phenyl]sulfonyl-N-cyclopropyl-acetamide]
≥ 80%: pest or weed control at 12.5 ppm (Myzus persicae)

Cc1cc(C2=NO[C@@](c3cc(Cl)cc(Cl)c3)(C(F)(F)F)C2)ccc1SCC(=O)NCC(F)(F)F [Compound C4, 2-{4-[(S)-5-(3,5-Dichloro-phenyl)-5-trifluoromethyl-4,5-dihydro-isoxazol-3-yl]-2-methyl-phenylsulfanyl}-N-(2,2,2-trifluoro-ethyl)-acetamide]
≥ 80%: pest or weed control at 200 ppm (Spodoptera littoralis) | pest or weed control at 200 ppm (Diabrotica balteata)

O=C(C[S+]([O-])c1ccc(C2=NCC(c3cc(Cl)cc(Cl)c3)(C(F)(F)F)C2)cc1Cl)NCC(F)(F)F (centres unmarked) [Compound B2, 2-{2-Chloro-4-[4-(3,5-dichloro-phenyl)-4-trifluoromethyl-4,5-dihydro-3H-pyrrol-2-yl]-benzenesulfinyl}-N-(2,2,2-trifluoro-ethyl)-acetamide]
≥ 80%: pest or weed control at 200 ppm (Spodoptera littoralis) | pest or weed control at 200 ppm (Diabrotica balteata) | pest or weed control at 200 ppm (Thrips tabaci) | pest or weed control at 200 ppm (Heliothis virescens) | pest or weed control at 200 ppm (Plutella xylostella) | pest or weed control at 12.5 ppm (Myzus persicae) | pest or weed control at 200 ppm (Tetranychus urticae)

Cc1cc(C2=NOC(c3cc(Cl)cc(Cl)c3)(C(F)(F)F)C2)ncc1SCC(=O)NC1CC1 (centres unmarked) [Compound F2, N-cyclopropyl-2-[[6-[5-(3,5-dichlorophenyl)-5-(trifluoromethyl)-4H-isoxazol-3-yl]-4-methyl-3-pyridyl]sulfanyl]acetamide]
≥ 80%: pest or weed control at 200 ppm (Spodoptera littoralis) | pest or weed control at 200 ppm (Diabrotica balteata) | pest or weed control at 200 ppm (Heliothis virescens) | pest or weed control at 200 ppm (Plutella xylostella) | pest or weed control at 12.5 ppm (Myzus persicae)

Cc1cc(C2=NOC(c3cc(Cl)cc(Cl)c3)(C(F)(F)F)C2)cnc1SCC(=O)NC1CC1 (centres unmarked) [Compound F1, N-cyclopropyl-2-[[5-[5-(3,5-dichlorophenyl)-5-(trifluoromethyl)-4H-isoxazol-3-yl]-3-methyl-2-pyridyl]sulfanyl]acetamide]
≥ 80%: pest or weed control at 200 ppm (Spodoptera littoralis) | pest or weed control at 200 ppm (Diabrotica balteata) | pest or weed control at 200 ppm (Heliothis virescens) | pest or weed control at 200 ppm (Plutella xylostella) | pest or weed control at 200 ppm (Tetranychus urticae)
